Experimental findings from publication PMC10480310 (iScience, 2023) are described below.

The target in the experiment is TEK receptor tyrosine kinase (Homo sapiens, UniProt Q02763). Kind of experiment: phospho-TEK ELISA on lysates of Ang1-stimulated HUVECs. In kind it is cell-based. Background: An ELISA detects its analyte on a solid surface through an enzyme-linked reagent.
TEK receptor tyrosine kinase, sequence (Q02763 23-1124): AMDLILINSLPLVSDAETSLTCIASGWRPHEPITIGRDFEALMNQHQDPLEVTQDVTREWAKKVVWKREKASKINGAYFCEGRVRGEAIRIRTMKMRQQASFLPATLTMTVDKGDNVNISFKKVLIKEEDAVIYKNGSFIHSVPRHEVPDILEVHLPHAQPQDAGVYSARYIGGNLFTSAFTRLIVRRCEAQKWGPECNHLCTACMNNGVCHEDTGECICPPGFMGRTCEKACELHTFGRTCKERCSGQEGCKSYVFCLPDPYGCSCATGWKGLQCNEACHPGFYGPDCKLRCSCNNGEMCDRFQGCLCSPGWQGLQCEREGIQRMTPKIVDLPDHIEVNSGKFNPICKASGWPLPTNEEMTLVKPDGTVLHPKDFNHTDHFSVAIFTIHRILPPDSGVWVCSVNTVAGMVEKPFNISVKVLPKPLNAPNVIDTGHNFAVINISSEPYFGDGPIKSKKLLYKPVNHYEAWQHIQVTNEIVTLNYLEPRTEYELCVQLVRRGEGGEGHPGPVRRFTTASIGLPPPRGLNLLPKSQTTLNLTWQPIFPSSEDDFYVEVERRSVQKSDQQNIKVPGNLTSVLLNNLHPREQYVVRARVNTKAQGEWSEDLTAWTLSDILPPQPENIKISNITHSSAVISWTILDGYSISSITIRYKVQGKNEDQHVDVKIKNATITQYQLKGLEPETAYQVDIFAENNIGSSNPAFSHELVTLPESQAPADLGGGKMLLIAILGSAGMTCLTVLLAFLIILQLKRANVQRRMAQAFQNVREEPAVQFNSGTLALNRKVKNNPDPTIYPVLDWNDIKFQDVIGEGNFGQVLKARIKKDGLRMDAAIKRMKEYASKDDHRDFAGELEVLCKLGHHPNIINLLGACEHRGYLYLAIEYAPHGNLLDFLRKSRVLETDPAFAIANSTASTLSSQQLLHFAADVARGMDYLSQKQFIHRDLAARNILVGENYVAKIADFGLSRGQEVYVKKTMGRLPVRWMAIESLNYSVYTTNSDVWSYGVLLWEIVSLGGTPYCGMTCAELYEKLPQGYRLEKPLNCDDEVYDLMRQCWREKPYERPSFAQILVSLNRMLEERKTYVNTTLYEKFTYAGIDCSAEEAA

`c1cc(-c2cnn3cc(-c4ccc(OCCN5CCCCC5)cc4)cnc23)ccn1` [DM, Dorsomorphin] showed an IC50 of 4.72 µM.

The term IC50 denotes the point on the concentration scale where inhibition reaches its midpoint. Read a high IC50 as weaker potency in that assay.
